# Assay results published in patent US20150209313A1 (priority 2014, published 2015).
# Entries after “also recorded” stand apart in the source; their conditions may differ. Where two headings read alike, the source gives them in different places.
# Key:
# [1] = system: Influenza Virus A/California/07/2009 H1N1; format: cell-based
# [2] = system: Influenza Virus A/Maryland/04/2011 H1N1; format: cell-based
# [3] = biological target: neuraminidase, Influenza Virus A/California/07/2009 H1N1 (Oseltamivir sensitive) (Influenza A virus (A/California/07/2009(H1N1)), UniProt C3W6G3); format: biochemical
structure (smiles),measurement,setting,value
CCOC(=O)C1=C[C@@H](OC(CC)CC)[C@H](NC(C)=O)[C@@H](N)C1 [Oseltamivir],plaque inhibitory effect (in words),[1],sensitive to this drug to 1 μM; also recorded: inhibitory effects
same,plaque inhibitory effect (in words),[2],only partially sensitive; also recorded: reduced oseltamivir susceptibility
same,Average Fluorescence,[3]; 0.005 nM,66385.00
same,Average Fluorescence,[3]; 0.05 nM,56340.00
same,Average Fluorescence,[3]; 0.5 nM,32060.00
same,Average Fluorescence,[3]; 5 nM,7802.00
same,Average Fluorescence,[3]; 50 nM,1215.00
same,Average Fluorescence,[3]; 500 nM,354.00
same,Average Fluorescence,"[3]; 5,000 nM",179.00
same,Average Fluorescence,"[3]; 50,000 nM",365.00
